In article PMC7459823, “Characterization of Five Novel Anti-MRSA Compounds Identified Using a Whole-Animal Caenorhabditis elegans/Galleria mellonella Sequential-Screening Approach” (Antibiotics, 2020):
Converted amounts (≈) assume the structure as drawn. Read-outs that look alike come from different tables or passages of the source.

Columns and labels:
[1] = test system: MRSA-MW2 infection of C. elegans; assay: C. elegans–MRSA-MW2 high-throughput screen (Z-score, alive versus dead worms); assay type: in vivo, Caenorhabditis elegans; conditions: screening concentration 2.86 µg/mL, hits Z > 2
From the text: The five compounds: (4,4′,4″-(4-propyl-[1H]-pyrazole-1,3,5-triyl)trisphenol, PPT; (1S,2S)-2-[2-[[3-(1H-benzimidazol-2-yl)propyl]methylamino]ethyl]-6-fluoro-1,2,3,4-tetrahydro-1-(1-methylethyl)-2- naphthalenyl cyclopropanecarboxylate dihydrochloride, NNC; 4,5,6,7-tetrabromobenzotriazole, TBB; 3-[2-[2-chloro-4-[3-(2,6-dichlorophenyl)-5-(1-methylethyl)-4-isoxazolyl]methoxy]phenyl] ethenyl] benzoic acid, GW4064; and N-(cyclopropylmethoxy)-3,4,5-trifluoro-2-[(4-iodo-2-methylphenyl)amino] benzamide, PD198306) were purchased from Tocris Bioscience at the following levels of purity: PPT: >99.7%, NNC: >98%, TBB: >99%, GW4064: >97%, and PD198306: 98.8%. […] Hits were identified based on Z-scores. Z-scores are calculated from the ratio of alive versus dead worms after treatment with test compounds and represents the number of standard deviations (SD) the test compound differs from the mean using the formula Z = (x − μ)/σ; where x is the raw sample score, μ is the mean of the population and σ is the standard deviation of the population. Samples with Z > 2σ are considered hits.

[2] = test system: MRSA MW2 infection of Galleria mellonella larvae; assay: G. mellonella–MRSA survival assay; assay type: in vivo; conditions: larvae infected with MRSA MW2 5 × 10^5 CFU, compound 10 mg/kg 2 h after infection, monitored 120 h; untreated 1 day
Protocol: Larvae were infected with MRSA MW2 (5 × 10^5 CFU) in the left rear proleg, and after two hours, the compounds were introduced separately at 10 mg/kg into the right rear proleg and larvae survival was monitored for 120 h.
Assays were performed as described previously. Briefly, sixteen randomly selected G. mellonella larvae (Vanderhorst, Inc., St. Mary’s, OH, USA) between 300–350 mg were used for each test group. MRSA-MW2 was grown in Tryptic Soy Broth (TSB), washed with phosphate buffered saline (PBS, pH = 7.4), and diluted to OD600 = 0.3 before inoculation into G. mellonella larvae. A 10-μL inoculum was injected into the last left proleg using a 10-μL Hamilton syringe. After 2 h, compounds were administered into the last right proleg and larvae were incubated at 37 °C. G.mellonella survival was monitored for 120 h, and death was confirmed when there was no response. Killing curves and differences in survival were analyzed by the Kaplan–Meier method using GraphPad Prism version 8 (GraphPad Software, La Jolla, CA, USA). Statistical analysis (Kruskal–Wallis test) was carried out using the same program.

[3] = test system: MRSA MW2; assay: Broth microdilution antibacterial susceptibility (MIC/MBC), MRSA MW2; assay type: cell-based, Staphylococcus aureus
Protocol: (§1) In vitro antibacterial activities were determined using the broth microdilution method. Assays were performed as described in Clinical and Laboratory Standards Institute protocols in triplicate using cation-adjusted Muller–Hinton broth (Becton Dickinson and Company, Franklin Lakes, NJ, USA) in 96-well plates with a total assay volume of 100 µL. Two-fold serial dilutions of test compounds were prepared over the concentration range of 1–64 µg/mL. The bacterial concentration was adjusted to OD600 = 0.06. […] A 10 µL aliquot from each well in the MIC assays was plated onto Muller–Hinton agar (Becton Dickinson and Company, Franklin Lakes, NJ, USA) and incubated overnight at 37 °C. The lowest concentration of compound for which no growth was observed on agar plates was reported as the minimal bactericidal concentration (MBC).

[4] = test system: clinical S. aureus isolate BF1; assay: Broth microdilution MIC, clinical S. aureus isolate BF1; assay type: cell-based; conditions: Staphylococcus aureus
Protocol: as §1

[5] = test system: clinical S. aureus isolate BF2; assay: Broth microdilution MIC, clinical S. aureus isolate BF2; assay type: cell-based; conditions: Staphylococcus aureus
Protocol: as §1

[6] = test system: clinical S. aureus isolate BF3; assay: Broth microdilution MIC, clinical S. aureus isolate BF3; assay type: cell-based; conditions: Staphylococcus aureus
Protocol: as §1

[7] = test system: clinical S. aureus isolate BF4; assay: Broth microdilution MIC, clinical S. aureus isolate BF4; assay type: cell-based; conditions: Staphylococcus aureus
Protocol: as §1

[8] = test system: Enterococcus faecium; assay: Broth microdilution MIC, Enterococcus faecium; assay type: cell-based
Protocol: as §1

[9] = test system: Klebsiella pneumoniae; assay: Broth microdilution MIC, Klebsiella pneumoniae; assay type: cell-based
Protocol: as §1

[10] = test system: Acinetobacter baumannii; assay: Broth microdilution MIC, Acinetobacter baumannii; assay type: cell-based
Protocol: as §1

[11] = test system: Enterobactor aerogens; assay: Broth microdilution MIC, Enterobactor aerogens; assay type: cell-based
Protocol: as §1

[12] = test system: Pseudomonas aeruginosa; assay: Broth microdilution MIC, Pseudomonas aeruginosa; assay type: cell-based
Protocol: as §1

[13] = test system: MRSA MW2; assay: Sytox green membrane permeabilization; assay type: cell-based, Staphylococcus aureus; conditions: compounds at 64 µg/mL, monitored over 1 h
Protocol: To determine whether the compounds target bacterial membranes, MRSA MW2 was treated with the compounds and uptake of the membrane-impermeable DNA-binding fluorescent dye Sytox green was monitored over 1 h (Figure 4).
Sytox Green (Life Technologies, Needham, MA, USA) membrane permeabilization assays were performed as previously described. The experiments were carried out in duplicate in 96-well plates. Cells were grown to log phase and were harvested by centrifuging at 3700× g for 5 min. The cells were washed twice with PBS and resuspended to OD600 = 0.2, following which 5 µM Sytox green was added to the cells and the bacteria-dye mixture were incubated in the dark for 30 mins.
Cell suspensions (50 µL) were added to 50 µL of test compounds (64 µg/mL in PBS) and fluorescence intensity was measured (excitation 485 nm, emission 530 nm) periodically over 60 min.

[14] = test system: MRSA-MW2; assay: Checkerboard synergy assay (FIC index); assay type: cell-based, Staphylococcus aureus; conditions: synergy FIC ≤ 0.5
Protocol: The combination of two antibiotics with different modes of action can reduce bacterial resistance and sometimes even restore clinical efficacy of an antibiotic that has lost effectiveness. The five compounds were tested against MRSA-MW2 in the presence of five clinical antibiotics from different classes (i.e., polymyxin B, gentamycin, erythromycin, doxycycline, and oxacillin).
Antibacterial synergy for combinations of the compounds with each other and with clinical antibiotics (doxycycline, gentamicin, polymyxin-B, oxacillin, and erythromycin) was measured using checkerboard assays. In short, Cultures of MRSA-MW2 were adjusted to OD600 = 0.06 and one compound was arrayed horizontally and other vertically in 96 well plates. The assays were carried out in triplicate, exactly as described for the antibacterial susceptibility assays. The inhibitory effects of compound combinations were evaluated using the Fractional Inhibitory Concentration (FIC) index, derived from the formula:FIC index = FICA + FICB = [A]/MICA + [B]/MICB
MIC of substance A tested in combination /MIC of substance A tested alone + MIC of substance B tested in combination/MIC of substance B tested alone. Synergy is indicated when FIC ≤ 0.5, indifference when 0.5 ≤ FIC ≤ 4, and antagonism when FIC > 4. Experiments were performed in duplicate and report the average FIC index.

[15] = test system: Cav3.1 T-type channels; parameters: method as in PMID 14718587; conditions: INS-1 cells; read-out: IC50 for inhibition of Cav3.1 T-type channels; cited from earlier work
[16] = test system: HVA currents; parameters: method as in PMID 14718587; conditions: INS-1 cells; read-out: IC50 for inhibition of HVA currents; cited from earlier work
[17] = test system: A549; assay: MTT cytotoxicity, A549; conditions: A549, 24 hr
Protocol: (§2) Mammalian cell lines HepG2 (hepatic cells), A549 (epithelial cells), and MKN-28 (gastric cells) were used to measure the anti-proliferative properties of test compounds, as described elsewhere [28]. Cells were grown in Dulbecco’s Modified Eagle Medium (DMEM) (Gibco, Waltham, MA, USA) supplemented with 10% Fetal Bovine Serum (FBS) (Gibco, Waltham, MA, USA) and 1% penicillin/streptomycin (Gibco, Waltham, MA, USA) and maintained at 37 °C in 5% CO2. After harvesting, the cells were suspended in DMEM and 100 µL was added to the wells of 96-well plates. The test compounds were serially diluted in serum and antibiotic free DMEM, added to the monolayer of cells, and incubated at 37 °C in 5% CO2 for 24 hr. Percentage survival was calculated by comparison to DMSO-treated vehicle controls. Assays were carried out in triplicate.

[18] = test system: HepG2; assay: MTT cytotoxicity, HepG2; conditions: HepG2, 24 hr
Protocol: as §2

[19] = test system: MKN-28; assay: MTT cytotoxicity, MKN-28; conditions: MKN-28, 24 hr
Protocol: as §2

[20] = Staphylococcus aureus, MRSA MW2, 18 h, 37 °C, read-out: MIC
[21] = Staphylococcus aureus, MRSA MW2, read-out: MBC
[22] = Enterobactor aerogens, read-out: MIC
[23] = Staphylococcus aureus, stated in text across MRSA MW2 and four clinical S. aureus isolates, read-out: MIC against MRSA MW2 and the clinical isolates

SMILES: CC(C)[C@H]1c2ccc(F)cc2CC[C@@]1(CCN(C)CCCc1nc2ccccc2[nH]1)OC(=O)C1CC1.Cl.Cl [NNC, (1S,2S)-2-[2-[[3-(1H-Benzimidazol-2-yl)propyl]methylamino]ethyl]-6-fluoro-1,2,3,4-tetrahydro-1-(1-methylethyl)-2-naphthalenyl cyclopropanecarboxylate dihydrochloride]
- Z-Score [1]: 5.83
- median post-infection survival [2]: 2 days
- MBC ([3]; MRSA MW2): >64 mg/L
- MIC [3, 20]: 8 mg/L
- MBC [3, 21]: > 64 mg/L
- MIC ([4]; BF1, read-out: MIC): 4 mg/L
- MIC ([5]; BF2, read-out: MIC): 2 mg/L
- MIC ([6]; BF3, read-out: MIC): 4 mg/L
- MIC ([7]; BF4, read-out: MIC): 4 mg/L
- MIC ([8]; read-out: MIC): 8 mg/L
- MIC ([9]; read-out: MIC): > 64 mg/L
- MIC ([10]; read-out: MIC): > 64 mg/L
- MIC [11, 22]: > 64 mg/L
- MIC ([12]; read-out: MIC): > 64 mg/L
- cellular fluorescence (Sytox green uptake) [13]: increases in cellular fluorescence
- Fractional Inhibitory Concentration (FIC) Index ([14]; with Doxycycline): 0.75
- Fractional Inhibitory Concentration (FIC) Index ([14]; with Erythromycin): 1.0
- Fractional Inhibitory Concentration (FIC) Index ([14]; with Gentamycin): 0.75
- Fractional Inhibitory Concentration (FIC) Index ([14]; with Oxacillin): 2.0
- Fractional Inhibitory Concentration (FIC) Index ([14]; with Polymyxin B): 0.5
- IC50 [15]: 6.8 µM
- IC50 [16]: > 100 µM
- Eukaryotic cell cytotoxicity [17]: 16 µg/mL
- Eukaryotic cell cytotoxicity [18]: 2 µg/mL
- Eukaryotic cell cytotoxicity [19]: 8 µg/mL

SMILES: CCCc1c(-c2ccc(O)cc2)nn(-c2ccc(O)cc2)c1-c1ccc(O)cc1 [PPT, 4,4′,4″-(4-Propyl-[1H]-pyrazole-1,3,5-triyl)trisphenol]
- Z-Score [1]: 5.54
- median post-infection survival [2]: 2 days
- MIC [3, 20]: 8 mg/L (≈ 20.7 µM)
- MBC [3, 21]: 32 mg/L (≈ 82.8 µM)
- MIC [3, 23]: 8 mg/L (≈ 20.7 µM)
- MIC ([4]; BF1, read-out: MIC): 8 mg/L (≈ 20.7 µM)
- MIC ([5]; BF2, read-out: MIC): 8 mg/L (≈ 20.7 µM)
- MIC ([6]; BF3, read-out: MIC): 8 mg/L (≈ 20.7 µM)
- MIC ([7]; BF4, read-out: MIC): 8 mg/L (≈ 20.7 µM)
- MIC ([8]; read-out: MIC): 8 mg/L (≈ 20.7 µM)
- MIC ([9]; read-out: MIC): > 64 mg/L
- MIC ([10]; read-out: MIC): > 64 mg/L
- MIC [11, 22]: > 64 mg/L
- MIC ([12]; read-out: MIC): > 64 mg/L
- cellular fluorescence (Sytox green uptake) [13]: increases in cellular fluorescence
- Fractional Inhibitory Concentration (FIC) Index ([14]; with Doxycycline): 0.5
- Fractional Inhibitory Concentration (FIC) Index ([14]; with Erythromycin): 0.75
- Fractional Inhibitory Concentration (FIC) Index ([14]; with Gentamycin): 1.0
- Fractional Inhibitory Concentration (FIC) Index ([14]; with Oxacillin): 1.0
- Fractional Inhibitory Concentration (FIC) Index ([14]; with Polymyxin B): 2.0
- Eukaryotic cell cytotoxicity [17]: 16 µg/mL
- Eukaryotic cell cytotoxicity [18]: 8 µg/mL
- Eukaryotic cell cytotoxicity [19]: 8 µg/mL

SMILES: CN[C@H](CC(C)C)C(=O)N[C@H]1C(=O)N[C@@H](CC(N)=O)C(=O)N[C@H]2C(=O)N[C@H]3C(=O)N[C@H](C(=O)N[C@H](C(=O)O)c4cc(O)cc(O)c4-c4cc3ccc4O)[C@H](O)c3ccc(c(Cl)c3)Oc3cc2cc(c3O[C@@H]2O[C@H](CO)[C@@H](O)[C@H](O)[C@H]2O[C@H]2C[C@](C)(N)[C@H](O)[C@H](C)O2)Oc2ccc(cc2Cl)[C@H]1O [Vancomycin]
- MBC ([3]; Staphylococcus aureus, MRSA): 8 mg/L (≈ 5.52 µM)
- MIC ([3]; Staphylococcus aureus, MRSA, 18 h): 1 mg/L (≈ 0.69 µM)
- MIC [4]: 2 mg/L (≈ 1.38 µM)
- MIC [5]: 2 mg/L (≈ 1.38 µM)
- MIC [6]: 2 mg/L (≈ 1.38 µM)
- MIC [7]: 2 mg/L (≈ 1.38 µM)
- MIC [8]: 4 mg/L (≈ 2.76 µM)
- MIC [9]: > 64 mg/L
- MIC [10]: > 64 mg/L
- MIC [11]: > 64 mg/L
- MIC [12]: > 64 mg/L

SMILES: CC(C)c1onc(-c2c(Cl)cccc2Cl)c1COc1ccc(C=Cc2cccc(C(=O)O)c2)c(Cl)c1 [GW4064, 3-[2-[2-Chloro-4-[[3-(2,6-dichlorophenyl)-5-(1-methylethyl)-4-isoxazolyl]methoxy]phenyl]ethenyl]benzoic acid]
- Z-Score [1]: 3.28
- median post-infection survival [2]: 2 days
- MBC ([3]; MRSA MW2): >64 mg/L
- MIC [3, 20]: 8 mg/L (≈ 14.7 µM)
- MBC [3, 21]: > 64 mg/L
- MIC [3, 23]: 4 to 8 mg/L (≈ 7.37 to 14.7 µM)
- MIC ([4]; BF1, read-out: MIC): 4 mg/L (≈ 7.37 µM)
- MIC ([5]; BF2, read-out: MIC): 4 mg/L (≈ 7.37 µM)
- MIC ([6]; BF3, read-out: MIC): 8 mg/L (≈ 14.7 µM)
- MIC ([7]; BF4, read-out: MIC): 8 mg/L (≈ 14.7 µM)
- MIC ([8]; read-out: MIC): 8 mg/L (≈ 14.7 µM)
- MIC ([9]; read-out: MIC): > 64 mg/L
- MIC ([10]; read-out: MIC): > 64 mg/L
- MIC [11, 22]: > 64 mg/L
- MIC ([12]; read-out: MIC): > 64 mg/L
- cellular fluorescence (Sytox green uptake) [13]: no changes in cellular fluorescence
- Fractional Inhibitory Concentration (FIC) Index ([14]; with Doxycycline): 2.06
- Fractional Inhibitory Concentration (FIC) Index ([14]; with Erythromycin): 1.0
- Fractional Inhibitory Concentration (FIC) Index ([14]; with Gentamycin): 0.5
- Fractional Inhibitory Concentration (FIC) Index ([14]; with Oxacillin): 1.0
- Fractional Inhibitory Concentration (FIC) Index ([14]; with Polymyxin B): 0.75
- Eukaryotic cell cytotoxicity [17]: 16 µg/mL
- Eukaryotic cell cytotoxicity [18]: 4 µg/mL
- Eukaryotic cell cytotoxicity [19]: 8 µg/mL
